Assays:
[1] = test system: Human Immunodeficiency Virus type 1 (HIV) strain #237228 in MT2 cells; assay: Anti-HIV-1 antiviral activity in acutely infected MT2 cells (CPE and RT activity); format: cell-based; settings: for IC100: Human immunodeficiency virus 1, 144 h, acute HIV-1 infection, day 6, concentration at which virus replication is inhibited (CPE negative or ±, >95% inhibition of RT activity); for antiviral index (Al), MT2 cells: only non-toxic concentrations used, 8640 min; for IC80: Human immunodeficiency virus 1, printed in the IC100 column with footnote (b) IC80
From the text: (§1) The antiviral activity of representative compounds of the present invention has been determined at the Antivirals Laboratory, Fairfield Hospital, Fairfield, Victoria, Australia. In this test a stock solution of each compound was made in DMSO, then diluted in culture medium (RF 10) to 2× the final concentration required for test. The final concentration of DMSO was 1% or below. Approximately 250,000 continuous lymphocytes of human origin (MT2 cells) or 750,000 human peripheral blood lymphocytes (PBLs) were exposed to dilutions of each test compound, then immediately infected with Human Immunodeficiency Virus type 1 (HIV) strain #237228 (a clinical isolate obtained from a human source). The infectivity titers were expressed as tissue culture 50% infective dose (TCID50 per ml) with 1 TCID50 corresponding to the amount of supernatant required to infect 50% of the replicate cell cultures. The 250 and 200 TCID50 were used for MT2 and PBL cells respectively. The cell/drug/virus mixture was then incubated at 37° C./CO2 in a 24-well microtitre plate. Fresh amounts of the appropriate dilution of each drug were added to both MT2 and PBL cultures at day 3. At day 6, the extent of HIV-specific cytopathic effects (CPE) associated with each concentration of test compound in each of the cultures was rated according to the following scale:
(§2) 4+: 75-100% of cells showing 3+: good CPE
(§3) 3+: 50-75% of cells showing 2+: moderate CPE
(§4) 2+: 25-50% of cells showing 1+: low CPE
(§5) 1+: 5-25% of cells showing trace: minimal CPE
(§6) +/-: less than 5% CPE Negative: no CPE
(§7) The activity of the compounds at each concentration was also assessed by their ability to inhibit viron-associated reverse transcriptase (RT) activity in the culture supernates. At the time of rating of CPE, supernatant fluids from each well were removed and RT activity measured using a standard assay. CPE ratings of negative, ± (in MT2 cells) or trace (in PBLs), with greater than 95% inhibition of RT activity, was considered to represent IC100 (the concentration of compound at which the virus replication is inhibited). Control cultures included in each test were:
(§8) (a) HIV-infected cells in the absence of test compound.
(§9) (b) Uninfected cells in the absence of tested compound.
(§10) (c) Cell toxicity control consisting of uninfected cells treated with dilutions of test compound.
(§11) At the conclusion of each experiment, viable cells in these cultures, as determined by tryptan blue exclusion, were compared with the counts obtained in (b), above.

HIV-1 protease = HIV-1 protease (Human immunodeficiency virus type 1 group M subtype B, UniProt P04585); assay: HIV-1 protease-inhibiting activity; format: biochemical; settings: half-maximal inhibition of HIV-1 protease
From the text: The HIV protease-inhibiting activity of representative compounds of the present invention has been tested by known methods (Brinkworth, R. I., et al., Biochem. Biophys. Res. Commun. 176, 241, (1991); McLeod, D. A., et al., Bioorganic & Medicinal Chemistry Letters (1991) 653-658).

[2] = test system: Human Immunodeficiency Virus type 1 (HIV) strain #237228 in human peripheral blood lymphocytes (PBLs); assay: Anti-HIV-1 antiviral activity in acutely infected peripheral blood lymphocytes (CPE and RT activity); format: cell-based, Human Immunodeficiency Virus type 1 (HIV); human cells; settings: for IC100: Human immunodeficiency virus 1, 144 h, PBL cells, acute HIV-1 infection, day 6, concentration at which virus replication is inhibited (CPE negative or trace, >95% inhibition of RT activity); for antiviral index (Al), PBL cells: only non-toxic concentrations used, 8640 min
From the text: as §1, §2, §3, §4, §5, §6, §7, §8, §9, §10, §11

Row | SMILES | IC100 [1] [µM] | antiviral index (Al), MT2 cells [1] | IC50 (HIV-1 protease) [nM] | IC100 [2] [µM] | antiviral index (Al), PBL cells [2] | IC50 ([1]; Human immunodeficiency virus 1, printed in the IC100 column with footnote (a) IC50) [nM] | IC80 [1] [nM]
1 | CC(C)[C@H](NC(=O)OCc1ccccn1)C(=O)N[C@@H](Cc1ccccc1)C(O)CN1C2CCC(C2)N1C(=O)OC(C)(C)C (stereo partly drawn) [Compound 10, 2-t-Butoxycarbonyl-3-[(2RS, 3S)-2-hydroxy-3-[N-(2-pyridyl)-methoxycarbonyl-L-valyl]amino-4-phenylbutyl]-2,3-diaza-bicyclo[2.2.1]-heptane] | 25 | 1 | 3300 ± 650 | – | – | – | –
2 | CC(C)(C)OC(=O)N1CC2CCCCC2CN1CC(O)[C@H](Cc1ccccc1)NC(=O)[C@H](CCC(N)=O)NC(=O)c1ccc2ccccc2n1 (stereo partly drawn) [Compound 4, cis-1,6-3-t-Butoxycarbonyl-4-[(2RS,3S)-2-hydroxy-3-(N-quinaldyl-L-glutaminyl)amino-4-phenylbutyl]-3,4-diaza-bicyclo[4.4.0]decane] | 1 | 10 | – | 1 | 10 | – | –
3 | CC(C)[C@H](NC(=O)c1ccc2ccccc2n1)C(=O)N[C@@H](Cc1ccccc1)[C@H](O)CN(NC(=O)OC(C)(C)C)C(C)C [Compound 9, t-Butyl 3-Isopropyl-3-[(2R,3S)-2-hydroxy-3-(N-quinaldyl-L-valyl)amino-4-phenylbutyl]carbazate] | 5 | 4 | – | – | – | – | –
4 | CC(C)[C@H](NC(=O)c1ccc2ccccc2n1)C(=O)N[C@@H](Cc1ccccc1)C(O)CN1CC2CCCCC2CN1C(=O)OC(C)(C)C (stereo partly shown) [Compound 3] | 1 | 5 | – | 1 | 5 | – | –
5 | CC(C)(C)OC(=O)N1CC2CCCCC2CN1CC(O)[C@H](Cc1ccccc1)NC(=O)OCc1ccccc1 (stereo partly drawn) [Compound 1, cis-1,6-3-t-Butoxycarbonyl-4-[(2RS,3S)-2-hydroxy-3-(phenylmethoxycarbonyl)amino-4-phenylbutyl]-3,4-diaza-bicyclo-[4.4.0]decane] | – | 1 | – | – | – | 10000 | –
6 | CC(C)(C)OC(=O)N1CC2CCCCC2CN1C[C@H](O)[C@H](Cc1ccccc1)NC(=O)[C@H](CC(N)=O)NC(=O)c1ccc2ccccc2n1 (single isomer, unassigned) [Compound 2b.A] | – | 100 | – | 0.01 | 1000 | – | 10
7 | CC(C)N(C[C@H](O)[C@H](Cc1ccccc1)NC(=O)[C@H](CC(N)=O)NC(=O)c1ccc2ccccc2n1)NC(=O)NC(C)(C)C [Compound 14, 1-(t-Butylamino)carbonyl-2-[(2S,3S)-2-hydroxy-3-(N-quinaldyl-L-asparaginyl)amino-4-phenylbutyl]-2-isopropylhydrazine] | 1 | 50 | – | 1 | > 50 | – | –
8 | CC(C)N(C[C@H](O)[C@H](Cc1ccccc1)NC(=O)[C@H](CC(N)=O)NC(=O)c1ccccc1)NC(=O)OC(C)(C)C [Compound 18, t-Butyl 3-isopropyl-3-[(2S,3S)-2-hydroxy-3-(N-benzoyl-L-asparaginyl)amino-4-phenylbutyl]carbazate] | 1 | 10 | – | 1 | > 150 | – | –
9 | C[C@@H](O)[C@H](NC(=O)c1ccc2ccccc2n1)C(=O)N[C@@H](Cc1ccccc1)C(O)CN1CC2CCCCC2CN1C(=O)OC(C)(C)C (stereo partly drawn) [Compound 5, cis-1,6-3-t-Butoxycarbonyl-4-[(2RS,3S)-2-hydroxy-3-(N-quinaldyl-L-threonyl)amino-4-phenylbutyl]-3,4-diaza-bicyclo[4.4.0]decane] | 1 | < 10 | – | 1 | < 10 | – | –
10 | CC(C)(C)OC(=O)N1CCCCN1C[C@H](O)[C@H](Cc1ccccc1)NC(=O)[C@H](CC(N)=O)NC(=O)c1ccc2ccccc2n1 [Compound 19, 1-t-Butyloxycarbonyl-2-[(2S,3S)-2-hydroxy-3-(N-quinaldyl-L-asparaginyl)amino-4-phenylbutyl]hexahydropyridazine] | 1 | 10 | – | 0.1 | 200 | – | –
11 | CC(C)(C)OC(=O)N1CC2CCCCC2CN1C[C@H](O)[C@H](Cc1ccccc1)NC(=O)[C@H](CC#N)NC(=O)c1ccc2ccccc2n1 (stereo partly drawn) [Compound 20, cis-1,6-3-t-Butoxycarbonyl-4-[(2S,3S)-2-hydroxy-3-(N-quinaldyl-3-cyano-L-alanyl)amimo-4-phenylbutyl]-3,4-diaza-bicyclo[4.4.0]decane] | 1 | 10 | – | 1 | 10 | – | –
12 | CC(C)[C@H](NC(=O)OCc1ccccn1)C(=O)N[C@@H](Cc1ccccc1)C(O)CN1CC2CCCCC2CN1C(=O)OC(C)(C)C (stereo partly drawn) [Compound 6, cis-1,6-3-t-Butoxycarbonyl-4-[(2RS,3S)-2-hydroxy-3-[N-(2-pyridyl)methoxycarbonyl-L-valyl]amino-4-phenylbutyl]-3,4-diaza-bicyclo[4.4.0]decane] | 1 | < 5 | – | 1 | < 5 | – | –
13 | CC(C)(C)OC(=O)N1CC2CCCCC2CN1C[C@H](O)[C@H](Cc1ccccc1)NC(=O)[C@H](CC(N)=O)NC(=O)c1ccc2ccccc2n1 (stereo partly drawn) [Compound 2b, cis-1,6-3-t-Butoxycarbonyl-4-[(2S, 3S)-2-hydroxy-3-(N-quinaldyl-L-asparaginyl)amino-4-phenylbutyl]-3,4-diaza-bicyclo[4.4.0]decane] | 0.1 | 50 | – | 0.1 | 100 | – | –
14 | CC(C)(C)OC(=O)NN(Cc1ccccc1)C[C@H](O)[C@H](Cc1ccccc1)NC(=O)[C@H](CC(N)=O)NC(=O)c1ccc2ccccc2n1 [Compound 16, t-Butyl 3-benzyl-3-[(2S,3S)-2-hydroxy-3-(N-quinaldyl-L-asparaginyl)amino-4-phenylbuty]carbazate] | 1 | 100 | – | 1 | 1 | – | –
15 | CC(C)(C)OC(=O)N1Cc2ccccc2CN1CC(O)[C@H](Cc1ccccc1)NC(=O)[C@H](CC(N)=O)NC(=O)c1ccc2ccccc2n1 (stereo partly drawn) [Compound 11, 2-t-Butoxycarbonyl-3-[(2RS, 3S)-2-hydroxy-3-(N-quinaldyl-L-asparaginyl)amino-4-phenylbutyl]-1,2,3,4-tetrahydrophthalazine] | 1 | > 10 | 12.5 ± 3.2 | – | – | – | –
16 | CC(C)N(C[C@H](O)[C@H](Cc1ccccc1)NC(=O)[C@H](CC(N)=O)NC(=O)c1ccccn1)NC(=O)OC(C)(C)C [Compound 15, t-Butyl 3-isopropyl-3-[(2S,3S)-2-hydroxy-3-(N-picolinyl-L-asparaginyl)amino-4-phenylbutyl]carbazate] | 1 | 100 | – | 1 | 200 | – | –
17 | CC(C)N(C[C@H](O)[C@H](Cc1ccccc1)NC(=O)[C@H](CC(N)=O)NC(=O)c1ccc2ccccc2n1)NC(=O)C(C)(C)C [Compound 13, 1-Trimethylacetyl-2-[(2S,3S)-2-hydroxy-3-(N-quinaldyl-L-asparaginyl)amino-4-phenylbutyl]-2-isopropylhydrazine] | 1 | 50 | – | 1 | > 50 | – | –
18 | CC(CCc1ccccc1)N(C[C@@H](O)[C@H](Cc1ccccc1)NC(=O)[C@H](CC(N)=O)NC(=O)c1ccc2ccccc2n1)NC(=O)OC(C)(C)C (stereo partly shown) [Compound 12] | – | 10 | – | – | – | – | 1000

— patent US6258806A, “Amine derivatives of oxo- and hydroxy- substituted hydrocarbons” (Narhex Limited, priority 1992, dated 2001)
